In patent US11446299B2, “Carbazole EHop-016 derivatives as anticancer and anti-migratory agents” (UNIVERSITY OF PUERTO RICO, priority 2017, dated 2022):

Tests used:
GFP-MDA-MB-231 cells = assay: Mammary tumor growth and metastasis in immunocompromised mice; assay type: in vivo; conditions: 1 mg/kg BW i.p., Monday to Friday, approximately 2 months
Protocol: FIG. 18 (A-D). Effect of HV-118 on mammary tumor growth. Severe combined immune deficiency (SCID) mice were inoculated at the mammary fat pad with GFP-MDA-MB-231 cells and treated with 0 (Vehicle) or 1 mg/kg BW HV-118 (5× a wk). FIG. 18A. Upper panel, representative images and lower panel, average relative tumor growth on last day. FIG. 18B. Relative tumor growth as a function of days following HV-118 administration. Lungs and livers were removed at necropsy and imaged for fluorescent metastatic foci. FIG. 18C. Representative organs under fluorescence microscopy for 0 (Vehicle) and 1 mg/kg BW HV-118 treatment. FIG. 18D. […]
Preliminary data supporting HV-118 as a potent inhibitor of Rac activation in breast cancer cells was confirmed. […] Tumor growth and metastasis were assessed by fluorescent imaging. HV-118 toxicity was also determined.
An in vivo study was performed to assess HV-118 toxicity and test its effects in mammary tumor growth and metastasis. […] The effects of HV-118 on tumor growth were monitored weekly by in situ fluorescence image analysis (starting from day 1 of treatment). Mammary tumor growth was quantified using Image J software, as the pixel intensity (integrated density) determined from digital tracing of the fluorescent tumor area at each imaging session and calculated as a function of the fluorescence intensity on day one of treatment. […]

breast cancer cell = assay: Breast cancer cell viability (cell line not given); assay type: cell-based; conditions: breast cancer cells, at concentrations ≥1 μM
MDA-MB-231 cancer cells = assay: Sulforhodamine B (SRB) growth inhibition assay; assay type: cell-based, human
Protocol: (§1) Various compounds were tested to evaluate the dose response curve for effect on MCF-7 cancer cells and MDA-MB-231 cancer cells. MCF-7 and MDA-MB-231 cells were cultured in 10% Minimum Essential Medium Eagle (MEME) supplemented with Earle's Balanced Salt Solution (EBSS), Non-essential Amino acids (NEAA), Sodium pyruvate, Pen/Strep, L-glutamine and Fetal Bovine Serum (FBS) at 37° C. in 5% CO2.
(§2) Sulforhodamine B (SRB) Assay: A stock solution of compounds was prepared at 50 mM in 100% DMSO. For cells preparation, a flask of 75 cm^2 or 25 cm^2 were used for 2.6×10^5 cells or 1.44×10^5 cells respectively with an 80-90% of confluence. Cells were washed with PBS and trypsinized. The concentration of cells was determined using a 1:2 dilutions with Trypan Blue and a hemocytometer. After cell count, the concentration was adjusted to have a 1.9×10^4 cells/well. Approximately […] of cells suspension, compounds, control positive and control negative were added in triplicates to a 96 well plate. Positive controls used were ellipticine, doxorubicin, and/or vincristine, and the negative control was DMSO 0.1%. All compounds at 50, 25, 12.5, 6.3, and 1.6 μM were incubated with cells at 37° C. for 24 hrs. For fixation, cold TCA 50% was used and incubated at 4° C. for 1 hr. Wells were washed and dried prior to tincture with 100 μL of SRB 0.4%. To remove excess of SRB, acetic acid was used. For analysis, TRIS-BASE Solution (pH=10.5) was used and shacked prior to reading using an ELISA reader at 510 nm and the software SoftMax Pro 4.8.
(§3) For each compound, 50% growth inhibition (GI50) was calculated from Sigmoidal dose-response curves (variable-slope) that were generated with data obtained from experiments carried out in triplicates (GI50 values were generated with GraphPad Prism V. 6.02, GraphPad Software, Inc.). The results are presented in FIGS. 4A-4B (MCF-7 cancer cells) and FIGS. 5A-5B (MDA-MB-231 cancer cells).

MCF-7 cancer cells = assay: Sulforhodamine B (SRB) growth inhibition assay; assay type: cell-based; conditions: Homo sapiens, MCF7, 24 h treatment, mean of triplicate, SD <10%
Protocol: as §1, §2, §3

Compound | reduction in metastasis to lung and liver (GFP-MDA-MB-231 cells) | reduction in tumor growth (GFP-MDA-MB-231 cells) | inhibition of breast cancer cell viability (breast cancer cell) | GI50 (MDA-MB-231 cancer cells; Homo sapiens, MDA-MB-231, SRB assay, 24 h treatment, mean of triplicate, SD <10%) | anti-proliferative activity / cytotoxicity in words (MDA-MB-231 cancer cells; MDA-MB-231, concentrations ≤50 μM) | GI50 (MCF-7 cancer cells)
CCn1c2ccccc2c2cc(Nc3cc(C)nc(Cl)n3)ccc21 [HV-118, (2-Chloro-6-methyl-pyrimidin-4-yl)-(9-ethyl-9H-carbazol-3-yl)-amine] | > 90% | 30% | – | – | – | –
CCn1c2ccccc2c2cc(C(=O)Nc3cccnc3N3CCOCC3)ccc21 [Compound 11b, 9-Ethyl-9H-carbazole-3-carboxylic Acid (2-morpholin-4-yl-pyridin-3-yl)-amide] | – | – | 45% | > 50 µM | minimal cytotoxicity | > 50 µM
